According to article PMC6979384, “Characterization of the plant homeodomain (PHD) reader family for their histone tail interactions” (Epigenetics & Chromatin, 2020):
Where no end group is shown, it is not given here.

How the values were obtained:
[1] = tested on: 123 annotated human PHD-containing domains; assay: PHD finger domain microarray probed with biotinylated peptides (all domains); type: binding; conditions: GST-PHD readers in duplicate on nitrocellulose slides, biotinylated peptide pre-labeled with streptavidin-Cy3
Excerpt: To define the histone binding preferences of the PHD finger proteome, we expressed and purified 123 annotated human PHD-containing domains as GST-tagged recombinant fusions from E. coli. The recombinant proteins consisted of either PHD fingers in isolation, or as tandem domains if a given PHD finger was located adjacent to another reader domain (e.g., one or more PHD fingers, Tudor, chromo and/or bromodomains) (Additional file 1: Table S1). These GST fusions were printed in duplicate on nitrocellulose-coated microarray slides and probed with biotinylated peptides that represented the N-termini of H3, H4, H2A or H2B (Fig. 1a and Additional file 2: Figure S1). As the majority of PHD readers thus far characterized are H3K4me0/3 readers, we included additional peptides (H3K4 as either mono-, di-, or trimethylated) to further determine any H3K4 methyl preference (Additional file 2: Figure S2 and Fig. 1b). As a control, we also probed these microarrays with an α-Tubulin peptide (a.a. 30–50) that would not be predicted to interact with PHD fingers (Additional file 2: Figure S1). […] We also cannot exclude the possibility that some PHD fingers might not be functionally active on the microarrays (perhaps due to misfolding or the lack of an important adjacent region).
The protein domain microarray was designed to include 123 GST-tagged PHD-domain containing recombinant proteins. Protein domain microarray development and probing was as previously. Briefly, recombinant proteins were synthesized and cloned into pGEX-4T-1 vector by Biomatik Corporation. These GST-PHD readers were subsequently expressed, purified, and spotted in duplicate onto nitrocellulose-coated glass slides (Oncyte Avid slides, Grace Bio-Labs) using a pin arrayer (Aushon 2470, Aushon). For probing, microarray slides were blocked with 3% milk, 3% bovine serum albumin, 0.1% Tween 20 in PBS. Biotinylated peptides were pre-labeled with streptavidin-Cy3 fluorophore (GE Healthcare) and incubated with the blocked array slides. Slides were then washed with PBST and allowed to air dry. Fluorescent interactions were visualized using a GenePix 4200A Microarray Scanner (Molecular Devices).

[2] = tested on: ING4; assay: Histone peptide microarray; type: binding, human; conditions: ING4, GST-tagged; arrays performed twice, n of 4
Summary of the method: (§1)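 Binding of recombinant GST-fused PHD readers (0.5 μM) is detected on an array of 293 histone peptides, modified singly or in combination. An optimized array protocol is followed, and each intensity is the average of quadruplicate measurements with standard deviation.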

[3] = tested on: ING1; assay: Histone peptide microarray; type: binding, human; conditions: ING1, GST-tagged; arrays performed twice, n of 4
Summary of the method: as §1

[4] = tested on: BAZ2B; assay: Histone peptide microarray; type: binding, human; conditions: BAZ2B, GST-tagged; arrays performed twice, n of 4
Summary of the method: as §1

[5] = tested on: PHF2; assay: Histone peptide microarray; type: binding, human; conditions: PHF2, GST-tagged; arrays performed twice, n of 4
Summary of the method: as §1

[6] = tested on: AIRE (PP); assay: Histone peptide microarray; type: binding, human; conditions: AIRE (PP), GST-tagged; arrays performed twice, n of 4
Summary of the method: as §1

[7] = tested on: TAF3; assay: Histone peptide microarray; type: binding, human; conditions: TAF3, GST-tagged; arrays performed twice, n of 4
Summary of the method: as §1

[8] = tested on: ING2; assay: Histone peptide microarray; type: binding, human; conditions: ING2, GST-tagged; arrays performed twice, n of 4
Summary of the method: as §1

[9] = tested on: ING5; assay: Histone peptide microarray; type: binding, human; conditions: ING5, GST-tagged; arrays performed twice, n of 4
Summary of the method: as §1

[10] = tested on: KDM5A (3); assay: Histone peptide microarray; type: binding, human; conditions: KDM5A (3), GST-tagged; arrays performed twice, n of 4
Summary of the method: as §1

[11] = tested on: BPTF (PB); assay: Histone peptide microarray; type: binding, human; conditions: BPTF (PB), GST-tagged; arrays performed twice, n of 4
Summary of the method: as §1

[12] = tested on: DIDO1; assay: Histone peptide microarray; type: binding, human; conditions: DIDO1, GST-tagged; arrays performed twice, n of 4
Summary of the method: as §1

[13] = tested on: CHD4 (PPCC); assay: Histone peptide microarray; type: binding, human; conditions: CHD4 (PPCC), GST-tagged; arrays performed twice, n of 4
Summary of the method: as §1

[14] = tested on: KDM5B (1); assay: Histone peptide microarray; type: binding, human; conditions: KDM5B (1), GST-tagged; arrays performed twice, n of 4
Summary of the method: as §1

[15] = tested on: MLL5; assay: Histone peptide microarray; type: binding, human; conditions: MLL5, GST-tagged; arrays performed twice, n of 4
Summary of the method: as §1

[16] = tested on: TRIM66 (PB); assay: Histone peptide microarray; type: binding, human; conditions: TRIM66 (PB), GST-tagged; arrays performed twice, n of 4
Summary of the method: as §1

[17] = tested on: MORC3 (CW); assay: Histone peptide microarray; type: binding, human; conditions: MORC3 (CW), GST-tagged; arrays performed twice, n of 4
Summary of the method: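 GST-PHD reader, 0.5 μM, probed on 293-peptide histone array (single/combinatorial PTMs); optimized array protocol; signal = mean ± SD, n = 4.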

[18] = tested on: DPF2 (PPC2W2); assay: Histone peptide microarray; type: binding, human; conditions: DPF2 (PPC2W2), GST-tagged; arrays performed twice, n of 4
Summary of the method: as §1

[19] = tested on: CHD5 (PPCC); assay: Histone peptide microarray; type: binding, human; conditions: CHD5 (PPCC), GST-tagged; arrays performed twice, n of 4
Summary of the method: as §1

[20] = tested on: PHF21A; assay: Histone peptide microarray; type: binding, human; conditions: PHF21A, GST-tagged; arrays performed twice, n of 4
Summary of the method: as §1

[21] = tested on: PHF23; assay: Histone peptide microarray; type: binding, human; conditions: PHF23, GST-tagged; arrays performed twice, n of 4
Summary of the method: as §1

[22] = tested on: SP140L; assay: Histone peptide microarray; type: binding, human; conditions: SP140L, GST-tagged; arrays performed twice, n of 4
Summary of the method: as §1

[23] = tested on: KDM5A (1); assay: Histone peptide microarray; type: binding, human; conditions: KDM5A (1), GST-tagged; arrays performed twice, n of 4
Summary of the method: as §1

[24] = tested on: PHRF1 (RP); assay: Histone peptide microarray; type: binding, human; conditions: PHRF1 (RP), GST-tagged; arrays performed twice, n of 4
Summary of the method: as §1

[25] = tested on: KDM5B (3); assay: Histone peptide microarray; type: binding, human; conditions: KDM5B (3), GST-tagged; arrays performed twice, n of 4
Summary of the method: as §1

[26] = tested on: KDM4C (TTP); assay: Histone peptide microarray; type: binding, human; conditions: KDM4C (TTP), GST-tagged; arrays performed twice, n of 4
Summary of the method: as §1

[27] = tested on: CHD5 (PCC); assay: Histone peptide microarray; type: binding, human; conditions: CHD5 (PCC), GST-tagged; arrays performed twice, n of 4
Summary of the method: as §1

[28] = tested on: KDM7A; assay: Histone peptide microarray; type: binding, human; conditions: KDM7A, GST-tagged; arrays performed twice, n of 4
Summary of the method: as §1

[29] = tested on: PHF8; assay: Histone peptide microarray; type: binding, human; conditions: PHF8, GST-tagged; arrays performed twice, n of 4
Summary of the method: as §1

[30] = tested on: ING3; assay: Histone peptide microarray; type: binding, human; conditions: ING3, GST-tagged; arrays performed twice, n of 4
Summary of the method: as §1

[31] = tested on: PHF13; assay: Histone peptide microarray; type: binding, human; conditions: PHF13, GST-tagged; arrays performed twice, n of 4
Summary of the method: as §1

[32] = tested on: RAG2; assay: Histone peptide microarray; type: binding, human; conditions: RAG2, GST-tagged; arrays performed twice, n of 4
Summary of the method: as §1

For “Ac-H2A (1-17): histone peptide (Ac-SGRGKQGGKARAKAKTR; UniProt P0C0S8 2-18, looked up, fragment)”, which “binding on domain microarray” value [1] is on record?
The value was “No detectable binding observed”.

“Ac-H4 (1-16): histone peptide (SGRGKGGKGLGKGGAK; N-terminal acetylation; UniProt P62805 2-17, looked up, fragment)” was tested. Which “binding on domain microarray” value [1] did it give?
Its value is “No detectable binding observed”.

How did the “binding on domain microarray” value [1] turn out when “H2B: biotinylated N-terminal H2B peptide (Figure S1: H2B (1-24)) [Peptide H2B]” was run?
The value was “little to no positive interactions”.

How did the “binding on domain microarray” value [1] turn out when “H4: biotinylated N-terminal H4 peptide (Figure S1: Ac-H4 (1-16)) (SGRGKGGKGLGKGGAK; biotin, N-terminal acetyl; UniProt P62805 2-17, looked up, fragment) [Peptide H4]” was run?
The value was “little to no positive interactions”.

Which “Array Heatmap value (peptide array binding signal)” value (from here on “Array Heatmap value”) [2] does the source give for “Myc-Tag: 1-10 (ILKKATAYIL; Myc epitope tag; UniProt P01106 410-419, looked up, fragment)” here?
The value was 0.4476.

What about the “Array Heatmap value” value [3] of the same substance?
Its value is 0.569.

And the “Array Heatmap value” value [4]?
The value was 0.4426.

What about the “Array Heatmap value” value [5] of the same substance?
The value was 0.5897.

And the “Array Heatmap value” value [6]?
The value was 0.3997.

And the “Array Heatmap value” value [7]?
The value was 0.2522.

And the “Array Heatmap value” value [8]?
Its value is 0.5931.

What about the “Array Heatmap value” value [9] of the same substance?
The value was 0.3459.

What about the “Array Heatmap value” value [10] of the same substance?
The value was 0.493.

And the “Array Heatmap value” value [11]?
Its value is 0.3544.

What about the “Array Heatmap value” value [12] of the same substance?
The value was 0.7478.

What about the “Array Heatmap value” value [13] of the same substance?
Its value is 0.5842.

And the “Array Heatmap value” value [14]?
Its value is 0.6488.

What about the “Array Heatmap value” value [15] of the same substance?
The value was 0.5446.

What about the “Array Heatmap value” value [16] of the same substance?
Its value is 0.6061.

What about the “Array Heatmap value” value [17] of the same substance?
Its value is 0.3567.

And the “Array Heatmap value” value [18]?
Its value is 0.6957.

What about the “Array Heatmap value” value [19] of the same substance?
Its value is 0.538.

And the “Array Heatmap value” value [20]?
The value was 0.4264.

And the “Array Heatmap value” value [21]?
The value was 0.5279.

And the “Array Heatmap value” value [22]?
Its value is 0.3664.

What about the “Array Heatmap value” value [23] of the same substance?
The value was 0.4279.

And the “Array Heatmap value” value [24]?
Its value is 0.4883.

What about the “Array Heatmap value” value [25] of the same substance?
The value was 0.4322.

And the “Array Heatmap value” value [26]?
Its value is 0.4677.

And the “Array Heatmap value” value [27]?
Its value is 0.7878.

What about the “Array Heatmap value” value [28] of the same substance?
The value was 0.3296.

And the “Array Heatmap value” value [29]?
Its value is 0.3567.

And the “Array Heatmap value” value [30]?
The value was 0.5082.

And the “Array Heatmap value” value [31]?
The value was 0.6119.

What about the “Array Heatmap value” value [32] of the same substance?
The value was 0.2496.

“α-Tubulin (30-50): α-Tubulin peptide (a.a. 30–50), control (IQPDGQMPSDKTIGGGDDSFN; also: biotin (end not given here))” was tested. Which “binding on domain microarray” value [1] did it give?
The value was “No detectable binding observed”.

And the “binding on domain microarray” value ([1]; listed as tubulin)?
The value was “little to no positive interactions”.
